Test results as given in article PMC7150891, “Mertansine Inhibits mRNA Expression and Enzyme Activities of Cytochrome P450s and Uridine 5′-Diphospho-Glucuronosyltransferases in Human Hepatocytes and Liver Microsomes” (Pharmaceutics, 2020).
Entries after “also recorded” stand apart in the source; their conditions may differ.

Assays:
[1] = parameters: method as in PMID 25048520, PMID 22752008; conditions: up to 1 µM; cited from earlier work
recombinant human CYP3A4 = system: recombinant human CYP3A4; parameters: method as in PMID 25048520, PMID 22752008; conditions: cited from earlier work
UGT1A4 = target: T1, UGT1A4 (Homo sapiens, UniProt P22310); assay: Inhibition of UGT1A4-catalyzed trifluoperazine N-β-D-glucuronidation in ultrapooled human liver microsomes; type: in vitro ADME
T1 construct: ultrapooled human liver microsomes (0.2 mg/mL); from tissue; host or cells: human liver microsomes (ultrapooled)
T1 sequence (P22310 29-534): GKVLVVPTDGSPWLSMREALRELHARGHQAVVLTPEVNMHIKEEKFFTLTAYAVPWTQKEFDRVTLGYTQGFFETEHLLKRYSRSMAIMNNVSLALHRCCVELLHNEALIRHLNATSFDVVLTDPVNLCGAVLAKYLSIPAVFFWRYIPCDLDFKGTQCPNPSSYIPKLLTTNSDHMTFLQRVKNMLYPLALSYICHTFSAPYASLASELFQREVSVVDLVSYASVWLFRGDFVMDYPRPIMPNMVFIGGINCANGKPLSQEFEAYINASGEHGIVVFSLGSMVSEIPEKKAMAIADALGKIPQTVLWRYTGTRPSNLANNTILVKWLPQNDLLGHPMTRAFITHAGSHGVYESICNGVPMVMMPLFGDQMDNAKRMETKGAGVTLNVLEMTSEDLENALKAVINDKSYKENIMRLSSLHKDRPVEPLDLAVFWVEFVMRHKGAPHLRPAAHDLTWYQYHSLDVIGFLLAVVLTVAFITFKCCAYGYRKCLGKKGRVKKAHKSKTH
Description: The inhibitory potential of mertansine on UGT1A1, UGT1A3, UGT1A4, UGT1A6, UGT1A9, and UGT2B7 activities was evaluated using liquid chromatography–tandem mass spectrometry (LC-MS/MS) with a cocktail of UGT substrates and ultrapooled human liver microsomes. Each incubation mixture was prepared to a final volume of 100 μL as follows: ultrapooled human liver microsomes (0.2 mg/mL), 5 mM UDPGA, 10 mM magnesium chloride, alamethicin (25 μg/mL), 50 mM Tris buffer (pH 7.4), various concentrations of mertansine in methanol (final concentrations of 0.01–50 μM), and the cocktail sets of UGT enzyme-specific substrates. Two cocktail sets were used: set A contained 0.5 μM SN-38 for UGT1A1, 2 μM chenodeoxycholic acid for UGT1A3, and 0.5 μM trifluoperazine for UGT1A4; and set B contained 1 μM N-acetylserotonin for UGT1A6, 0.2 μM mycophenolic acid for UGT1A9, and 1 μM naloxone for UGT2B7. The reactions were initiated by adding UDPGA and incubated in a shaking water bath for 60 min at 37 °C. […] Next, 50 μL of each supernatant of sets A and B was mixed, and aliquots (5 μL) were analyzed using LC-MS/MS. […]
The LC-MS/MS system was comprised of an Agilent 6495 triple quadrupole mass spectrometer coupled with an Agilent 1290 Infinity system (Agilent Technologies, Wilmington, DE, USA). […] The electrospray ionization (ESI) source settings in both positive and negative ion modes were as follows: gas temperature, 200 °C; gas flow, 14 L/min; nebulizer, 40 psi; sheath gas temperature, 380 °C; sheath gas flow, 11 L/min; capillary voltage, 4500 V; and nozzle voltage, 500 V. Each metabolite was quantified via selected reaction monitoring in the negative ion mode (chenodeoxycholic acid 24-acyl-β-glucuronide, m/z 567.1 to 391.2; mycophenolic acid β-D-glucuronide, m/z 495.0 to 319.0; propofol glucuronide (IS), m/z 353.0 to 177.0) and in the positive ion mode (SN-38 glucuronide, m/z 568.9 to 392.9; trifluoperazine N-β-D-glucuronide, m/z 583.9 to 407.9; N-acetylserotonin β-D-glucuronide, m/z 394.0 to 219.0; naloxone 3-β-D-glucuronide, m/z 503.9 to 309.9; meloxicam (IS), m/z 351.9 to 115.0). […]

## COc1cc2cc(c1Cl)N(C)C(=O)CC(OC(=O)C(C)N(C)C(=O)CCS)C1(C)OC1C(C)C1CC(O)(NC(=O)O1)C(OC)C=CC=C(C)C2 (stereo not drawn) [mertansine, Mertansine]
[1]
  Induction potential: no induction potential
Recombinant human CYP3A4; recombinant human CYP3A4, irreversible inhibition, read-out: Ki, inactivation of midazolam 1′-hydroxylation
  KI (inactivation): 3.4 µM
Recombinant human CYP3A4; recombinant human CYP3A4
  kinact, inactivation of midazolam 1′-hydroxylation: 0.058 min⁻¹
UGT1A4; human liver microsomes, Dixon plot
  Inhibition Mode, UGT1A4: competitively inhibited; also recorded: competitive inhibitor
UGT1A4; human liver microsomes, trifluoperazine 0.2–2 µM
  Ki: 21.2 µM
UGT1A4; ultrapooled human liver microsomes, 0.5 µM trifluoperazine (cocktail)
  IC50: 23.3 µM
